Read-outs that look alike come from different tables or passages of the source. Values belong to the compound of their own block, whether it stands above or below them.
How the values were obtained:
[1] = target: T1, jojoba acyl-CoA reductase (Simmondsia chinensis, UniProt Q9XGY7); details: for inhibitory effect on reductase activity (in words): known reductase/synthase inhibitors and sulphydryl blocking agents
T1 sequence (Q9XGY7 1-493): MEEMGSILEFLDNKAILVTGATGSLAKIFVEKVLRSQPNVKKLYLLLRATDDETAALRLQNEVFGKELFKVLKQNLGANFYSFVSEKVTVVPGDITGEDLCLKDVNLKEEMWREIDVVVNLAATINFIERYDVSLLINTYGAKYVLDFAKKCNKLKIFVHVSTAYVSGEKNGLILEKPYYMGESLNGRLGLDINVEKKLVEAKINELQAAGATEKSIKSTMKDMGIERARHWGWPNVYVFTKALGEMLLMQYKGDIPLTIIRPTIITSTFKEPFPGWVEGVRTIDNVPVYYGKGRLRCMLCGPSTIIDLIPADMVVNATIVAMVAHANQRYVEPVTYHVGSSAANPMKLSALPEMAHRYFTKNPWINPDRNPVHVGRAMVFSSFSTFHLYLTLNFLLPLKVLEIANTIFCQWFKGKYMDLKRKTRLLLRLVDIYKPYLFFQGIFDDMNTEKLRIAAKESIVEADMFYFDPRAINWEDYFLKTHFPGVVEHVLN
Experimental: Reductase activity in a microsomal membrane preparation is measured by incubation of 20 μM [1-^14 C]acyl-CoA (usually tetracosenoyl-CoA, sp. act. 2-5 Ci/mol) with the sample to be assayed and 2 mM NADPH, in a total volume of 0.25 ml. The incubation mixture also contains 10% w/v glycerol, 1 mM DTT, and is buffered with 50 mM HEPES (4-[2-hydroxyethyl]-1-piperazineethane-sulfonic acid) (HEPES, here and as refered to hereafter is added from a 1M stock solution adjusted to pH 7.5) .
The assay is started by the addition of acyl-CoA substrate and the incubation is carried out at 30° C. for one hour. The assay is terminated by placing the assay tube on ice and immediately adding 0.25 ml isopropanol:acetic acid (5:1 v/v) . Unlabeled wax esters (0.1 mg) and oleyl alcohol (0.1 mg) are added as carriers. The [^14 C] lipids are extracted by the scaled-down protocol of Hara and Radin (Anal. Biochem. (1978) 90:420). Six ml of hexane/isopropanol (3:2, v/v) is added to the terminated assay. The sample is vortexed, 2 ml of aqueous sodium sulphate solution (5.5% w/v) is added, and the sample is again vortexed.
The microsomal membrane preparation described above is used for further characterization of the reductase enzyme. […] Characterization experiments were conducted at pH 7.5, which is close to the presumed physiological pH of the cytoplasm.
1. Salt Effects: A variety of salts were examined for their effect on reductase activity using a standard concentration of 0.5M for monobasic salts. Salts with divalent cations or anions were examined at 0.167M (to give the same ionic strength as the 0.5M monobasic salts) and also at 0.5M.
4. Reductase Inhibitor Assays: Several known inhibitors of other types of reductase proteins were tested for their effect on the jojoba acyl-CoA reductase activity.
Sulphydryl blocking agents were also screened for their effect on reductase activity.

[2] = test system: jojoba acyl-CoA reductase; assay: Acyl (substrate) specificity of the reductase, microsomal membrane preparation; assay type: biochemical; details: substrates compared at 10 uM, 0.5M NaCl
Text: (§1) 3. […] NaCl concentration in these assays is 0.5M.

[3] = target: T1, jojoba acyl-CoA reductase; assay: Competitive inhibition experiment, unlabelled palmitoyl-CoA vs [1-14C]tetracosenoyl-CoA; assay type: biochemical; design: The microsomal membrane preparation described above is used for further characterization of the reductase enzyme; from tissue; host or cells: developing jojoba embryos (seed coats removed), microsomal membrane preparation; details: unlabelled inhibitor 0-30 μM; [1-14C]tetracosenoyl-CoA 20 μM; read-out: concentration giving 50% inhibition of reductase activity towards tetracosenoyl-CoA
[4] = target: T1, jojoba acyl-CoA reductase; assay: Acyl (substrate) specificity of the reductase, microsomal membrane preparation; assay type: biochemical; design: The microsomal membrane preparation described above is used for further characterization of the reductase enzyme; from tissue; host or cells: developing jojoba embryos (seed coats removed), microsomal membrane preparation; details: acyl-CoA thioester as substrate at 10 μM; 0.5M NaCl; pH 7.5
Text: as §1

jojoba acyl reductase = target: T2, jojoba acyl reductase (Simmondsia chinensis, UniProt Q9XGY7); assay: Detergent inhibition of reductase activity and its reversibility; assay type: biochemical
T2 construct: The microsomal membrane preparation described above is used for further characterization of the reductase enzyme; from tissue; host or cells: developing jojoba embryos (seed coats removed), microsomal membrane preparation
T2 sequence (Q9XGY7 1-493): T1 sequence (Q9XGY7 1-493)
Text: Often, detergents which are used to solubilize membrane proteins are found to inhibit the enzymatic activity of a desired protein. […] However, as apparent detergent inhibition of reductase activity may be due to some effect other than irreversible inhibition of the enzyme, the reversibility of inhibition by CHAPS was examined.
A protocol for solubilizing jojoba acyl reductase activity utilizing the detergent CHAPS has been devised which yields approximately 85% of the reductase activity from the microsomal membrane preparation. This method is discussed in detail in Example 2. Similarly, studies of reversibility of apparent reductase inhibition by other detergents may be conducted to identify other useful detergents for solubilization of acyl reductase activity for jojoba or other candidate reductases.

[5] = test system: jojoba acyl-CoA reductase; details: previously shown, Pollard et al.; cited from earlier work
[6] = 0.5M for monobasic salts, divalent salts at 0.167M and 0.5M
[7] = millimolar concentrations (given for CoA and NADP+)

effect on reductase activity (in words) ([1]; other effectors, pH 7.5): stimulatory
Compound: O[C@H](CS)[C@H](O)CS (racemic) [Dithiothreitol]

Compound: CCCCCCCCCCCCCCCC(=O)SCCNC(=O)CCNC(=O)[C@H](O)C(C)(C)COP(=O)(O)OP(=O)(O)OC[C@H]1O[C@@H](n2cnc3c(N)ncnc32)[C@H](O)[C@@H]1OP(=O)(O)O [16:0 Acyl-CoA, palmitoyl-CoA]
activity as substrate of the reductase (in words) [2]: barely above background
IC50 [3]: 5 µM

Compound: CCCCCCCCCCCCCCCCCC(=O)SCCNC(=O)CCNC(=O)[C@H](O)C(C)(C)COP(=O)(O)OP(=O)(O)OC[C@H]1O[C@@H](n2cnc3c(N)ncnc32)[C@H](O)[C@@H]1OP(=O)(O)O [18:0 Acyl-CoA]
Reductase Activity, Acyl-CoA (10 μM) [4]: 1.4 pmol/min/µL

Compound: CCCCCCCC/C=C\CCCCCCCCCC(=O)SCCNC(=O)CCNC(=O)[C@H](O)C(C)(C)COP(=O)(O)OP(=O)(O)OC[C@H]1O[C@@H](n2cnc3c(N)ncnc32)[C@H](O)[C@@H]1OP(=O)(O)O [20:1 Acyl-CoA]
Reductase Activity, Acyl-CoA (10 μM) [4]: 1.0 pmol/min/µL

Compound: CCCCCCCC/C=C\CCCCCCCCCCCC(=O)SCCNC(=O)CCNC(=O)[C@H](O)C(C)(C)COP(=O)(O)OP(=O)(O)OC[C@H]1O[C@@H](n2cnc3c(N)ncnc32)[C@H](O)[C@@H]1OP(=O)(O)O [22:1 Acyl-CoA]
Reductase Activity, Acyl-CoA (10 μM) [4]: 1.0 pmol/min/µL

Compound: C[C@H](CCC(=O)NCCC[N+](C)(C)CCCS(=O)(=O)[O-])[C@H]1CC[C@H]2[C@@H]3[C@H](O)C[C@@H]4C[C@H](O)CC[C@]4(C)[C@H]3C[C@H](O)[C@]12C [CHAPS, 3-[(3-cholamidopropyl)-dimethyl-ammonio]-1-propanesulfonate]
inhibition of reductase activity by detergent (in words) (jojoba acyl reductase; at concentrations above the CMC): strong inhibition
reversibility of detergent inhibition (in words) (jojoba acyl reductase; enzyme exposed on ice, then returned to a concentration at or below the CMC): complete recovery of reductase activity

Compound: [Ca+2].[Cl-].[Cl-] [CaCl2]
salt effect on reductase activity (in words) [1, 6]: stimulate reductase activity

Compound: C/C=C/C/C=C/CCC(=O)[C@H]1O[C@H]1C(N)=O [Cerulinen]
inhibitory effect on reductase activity (in words) [1]: no strong inhibitory effect

effect on reductase activity (in words) [1, 7]: significant inhibition
Compound: CC(C)(COP(=O)(O)OP(=O)(O)OC[C@H]1O[C@@H](n2cnc3c(N)ncnc32)[C@H](O)[C@@H]1OP(=O)(O)O)[C@@H](O)C(=O)NCCC(=O)NCCS [CoA, CoenzymeA]

Compound: [Cl-].[K+] [KCl]
salt effect on reductase activity (in words) [1, 6]: stimulate reductase activity

Compound: N#CS [KSCN]
salt effect on reductase activity (in words) [1]: no stimulation or marginal stimulation

Compound: [Cl-].[Li+] [LiCl]
salt effect on reductase activity (in words) [1, 6]: stimulate reductase activity

Compound: CC[C@H](C)C(=O)O[C@H]1C[C@@H](C)C=C2C=C[C@H](C)[C@H](CC[C@@H]3C[C@@H](O)CC(=O)O3)[C@H]21 [Mevinolin]
concentration at which an effect on jojoba acyl-CoA reductase activity was seen ([1]; only had an effect at relatively high concentrations): 100 µM

Compound: [Cl-].[Cl-].[Mg+2] [MgCl2]
salt effect on reductase activity (in words) [1, 6]: stimulate reductase activity

Compound: CCN1C(=O)C=CC1=O [N-ethylmaleimide]
inhibitory effect on reductase activity (in words) [1]: strongly inhibit

effect on reductase activity (in words) [1, 7]: marginal effects
Compound: NC(=O)c1ccc[n+]([C@@H]2O[C@H](COP(=O)([O-])OP(=O)(O)OC[C@H]3O[C@@H](n4cnc5c(N)ncnc54)[C@H](O)[C@@H]3O)[C@@H](O)[C@H]2O)c1 [NAD+]

cofactor-dependent reductase activity relative to the NADPH-dependent activity ([1]; cofactor in place of NADPH, not measurable above background): < 2%
effect on reductase activity (in words) [1, 7]: marginal effects
Compound: NC(=O)C1=CN([C@@H]2O[C@H](COP(=O)(O)OP(=O)(O)OC[C@H]3O[C@@H](n4cnc5c(N)ncnc54)[C@H](O)[C@@H]3O)[C@@H](O)[C@H]2O)C=CC1 [NADH]

effect on reductase activity (in words) [1, 7]: significant inhibition
Compound: NC(=O)c1ccc[n+]([C@@H]2O[C@H](COP(=O)([O-])OP(=O)(O)OC[C@H]3O[C@@H](n4cnc5c(N)ncnc54)[C@H](OP(=O)(O)O)[C@@H]3O)[C@@H](O)[C@H]2O)c1 [NADP+]

salt effect on reductase activity (in words) [1, 6]: stimulate reductase activity
Compound: O=S(=O)([O-])[O-].[Na+].[Na+] [Na2 SO4]

Compound: [Cl-].[Na+] [NaCl]
stimulation of reductase activity ([1]; microsomes, 500000 µM): Up to 15 fold

Compound: O=C(O)CN(CCN(CC(=O)O)CC(=O)O)CC(=O)O [ethylenediaminetetraacetic acid]
optimum concentration for stimulation of reductase activity [1]: 2.5 mM
effect on reductase activity (in words) ([1]; pH 7.5): some stimulation

Compound: NC(=O)CI [iodoacetamide]
inhibitory effect on reductase activity (in words) [1]: no effect

Compound: O=C(O)c1cc[c]([Hg][OH])cc1 [para-hydroxymercuribenzoate]
inhibitory effect on reductase activity (in words) [1]: some inhibitory effect

activity as substrate of the reductase (in words) [2]: high
Compound: palmitoyl-ACP [16:0 Acyl-ACP]

Compound: stearoyl-ACP
activity as substrate of the reductase (in words) [5]: activity as a substrate
